Literature values in patent US6689338B2, “Bioconjugates of nanoparticles as radiopharmaceuticals” (The Board of Regents for Oklahoma State University, priority 2000, dated 2004).

Tested on: tumor
Settings: in vivo

In the case of `O=C([O-])CN(CCN(CC(=O)[O-])CC(=O)[O-])CCN(CC(=O)[O-])CC(=O)[O-].[111In+3].[H+].[H+]`, the liver background is given as “high liver background”.
